Reference: PubChem BioAssay AID222 (DTP/NCI, 2004)
Values joined by “and” are separate entries in the source; they are usually repeats but may differ in a detail not shown here. Identical values can stand only once. Toxic doses and inconclusive results are not listed.

System: C57BL/6 mice, intracerebral ependymoblastoma, median survival T/C
Test: NCI In Vivo Anticancer Drug Screen. Data for tumor model Ependymoblastoma (intracerebral) in C57BL/6 mice
Conditions: endpoint: median survival time, higher = longer survival
Experimental: The antitumor activity of compounds was measured in mice bearing transplantable tumors. Survival or tumor size were measured and the results are expressed as the measurement made in the treated group (T) divided by the measurement made in the vehicle treated control group (C). The tumor model used in this assay is Ependymoblastoma (intracerebral) in C57BL/6 mice

In the case of O=NN(CCCl)C(=O)NC1CCC(=O)NC1=O (centres undefined), the T/C (dose: 0.5 mg/kg/injection, schedule: Q01DX005 (ip), vehicle: Klucel (hydroxypropylcellulose) (HPC)) is reported as 103 % of control, the T/C (dose: 0.5 mg/kg/injection, schedule: Q01DX005 (ip), vehicle: suspension in saline) is reported as 118 % of control and the T/C (dose: 0.62 mg/kg/injection, schedule: Q01DX001 (ip), vehicle: other) is reported as 100 % of control. The T/C (dose: 1.0 mg/kg/injection, schedule: Q01DX005 (ip), vehicle: Klucel (hydroxypropylcellulose) (HPC)) was 100 % of control, the T/C (dose: 1.0 mg/kg/injection, schedule: Q01DX005 (ip), vehicle: suspension in saline) was 114 % of control and the T/C (dose: 1.25 mg/kg/injection, schedule: Q01DX001 (ip), vehicle: other) was 101 % of control. The T/C (dose: 1.75 mg/kg/injection, schedule: Q01DX001 (ip), vehicle: other) was 104 % of control, the T/C (dose: 2.0 mg/kg/injection, schedule: Q#A X002 (ip), vehicle: saline) was 100 % of control and 111 % of control and the T/C (dose: 2.5 mg/kg/injection, schedule: Q01DX001 (ip), vehicle: other) was 100 % of control. The T/C (dose: 3.5 mg/kg/injection, schedule: Q01DX001 (ip), vehicle: other) was 102 % of control and 104 % of control, the T/C (dose: 3.5 mg/kg/injection, schedule: Q01DX001 (ip), vehicle: saline with Tween-80) was 95 % of control and the T/C (dose: 4.0 mg/kg/injection, schedule: Q01DX001 (ip), vehicle: saline with Tween-80) was 106 % of control. The T/C (dose: 4.0 mg/kg/injection, schedule: Q01DX005 (ip), vehicle: Klucel (hydroxypropylcellulose) (HPC)) was 290 % of control, the T/C (dose: 4.0 mg/kg/injection, schedule: Q01DX005 (ip), vehicle: suspension in saline) was 298 % of control and the T/C (dose: 4.0 mg/kg/injection, schedule: Q#A X002 (ip), vehicle: saline) was 98 % of control and 99 % of control. For the same compound, the T/C (dose: 5.0 mg/kg/injection, schedule: Q01DX001 (ip), vehicle: other) was 119 % of control, the T/C (dose: 5.0 mg/kg/injection, schedule: Q01DX001 (oral), vehicle: other) was 161 % of control and the T/C (dose: 7.0 mg/kg/injection, schedule: Q01DX001 (ip), vehicle: other) was 113 % of control and 119 % of control. For the same compound, the T/C (dose: 8.0 mg/kg/injection, schedule: Q01DX001 (ip), vehicle: saline with Tween-80) was 106 % of control, the T/C (dose: 8.0 mg/kg/injection, schedule: Q01DX005 (ip), vehicle: Klucel (hydroxypropylcellulose) (HPC)) was 281 % of control and the T/C (dose: 8.0 mg/kg/injection, schedule: Q#A X002 (ip), vehicle: saline) was 102 % of control. For the same compound, the T/C (dose: 10.0 mg/kg/injection, schedule: Q01DX001 (ip), vehicle: other) was 162 % of control, the T/C (dose: 10.0 mg/kg/injection, schedule: Q01DX001 (oral), vehicle: other) was 210 % of control and the T/C (dose: 10.0 mg/kg/injection, schedule: Q07DX003 (ip), vehicle: saline) was 318 % of control. For the same compound, the T/C (dose: 14.0 mg/kg/injection, schedule: Q01DX001 (ip), vehicle: saline with Tween-80) was 102 % of control, the T/C (dose: 16.0 mg/kg/injection, schedule: Q01DX001 (ip), vehicle: saline with Tween-80) was 104 % of control and the T/C (dose: 16.0 mg/kg/injection, schedule: Q01DX001 (oral), vehicle: Klucel (hydroxypropylcellulose) (HPC)) was 106 % of control. The T/C (dose: 16.0 mg/kg/injection, schedule: Q#A X002 (ip), vehicle: saline) was 102 % of control and 112 % of control, the T/C (dose: 20.0 mg/kg/injection, schedule: Q01DX001 (oral), vehicle: other) was 90 % of control and the T/C (dose: 20.0 mg/kg/injection, schedule: Q07DX003 (ip), vehicle: saline) was 117 % of control. For the same compound, the T/C (dose: 28.0 mg/kg/injection, schedule: Q01DX001 (ip), vehicle: other) was 100 % of control and 103 % of control, the T/C (dose: 28.0 mg/kg/injection, schedule: Q01DX001 (ip), vehicle: saline with Tween-80) was 93 % of control and the T/C (dose: 32.0 mg/kg/injection, schedule: Q01DX001 (ip), vehicle: saline with Tween-80) was 105 % of control. The T/C (dose: 32.0 mg/kg/injection, schedule: Q01DX001 (oral), vehicle: Klucel (hydroxypropylcellulose) (HPC)) was 102 % of control, the T/C (dose: 32.0 mg/kg/injection, schedule: Q#A X002 (ip), vehicle: saline) was 100 % of control and the T/C (dose: 56.0 mg/kg/injection, schedule: Q01DX001 (ip), vehicle: other) was 88 % of control. The T/C (dose: 56.0 mg/kg/injection, schedule: Q01DX001 (ip), vehicle: saline with Tween-80) was 93 % of control, the T/C (dose: 64.0 mg/kg/injection, schedule: Q01DX001 (ip), vehicle: saline with Tween-80) was 109 % of control and the T/C (dose: 64.0 mg/kg/injection, schedule: Q01DX001 (oral), vehicle: Klucel (hydroxypropylcellulose) (HPC)) was 100 % of control. For the same compound, the T/C (dose: 128.0 mg/kg/injection, schedule: Q01DX001 (oral), vehicle: Klucel (hydroxypropylcellulose) (HPC)) was 102 % of control and the T/C (dose: 256.0 mg/kg/injection, schedule: Q01DX001 (oral), vehicle: Klucel (hydroxypropylcellulose) (HPC)) was 104 % of control.

In the case of CN(C)CC(=O)c1ccc(O)c(O)c1, the T/C (dose: 100.0 mg/kg/injection, schedule: Q01DX005 (ip), vehicle: saline) is reported as 101 % of control, the T/C (dose: 200.0 mg/kg/injection, schedule: Q01DX005 (ip), vehicle: saline) is reported as 99 % of control and the T/C (dose: 400.0 mg/kg/injection, schedule: Q01DX005 (ip), vehicle: saline) is reported as 108 % of control.

With CCC1=C[C@H]2CN(CCc3c([nH]c4ccccc34)[C@@](C(=O)OC)(c3cc4c(cc3OC)N(C)[C@H]3[C@@](O)(C(=O)NC)[C@H](OC(C)=O)[C@]5(CC)C=CCN6CC[C@]43[C@@H]65)C2)C1 the T/C (dose: 0.05 mg/kg/injection, schedule: Q01DX005 (ip), vehicle: Klucel (hydroxypropylcellulose) (HPC)) was 105 % of control, the T/C (dose: 0.1 mg/kg/injection, schedule: Q01DX005 (ip), vehicle: Klucel (hydroxypropylcellulose) (HPC)) was 98 % of control and the T/C (dose: 0.2 mg/kg/injection, schedule: Q01DX005 (ip), vehicle: Klucel (hydroxypropylcellulose) (HPC)) was 107 % of control. The T/C (dose: 0.4 mg/kg/injection, schedule: Q01DX005 (ip), vehicle: Klucel (hydroxypropylcellulose) (HPC)) was 103 % of control and the T/C (dose: 0.8 mg/kg/injection, schedule: Q01DX005 (ip), vehicle: Klucel (hydroxypropylcellulose) (HPC)) was 93 % of control.

For NC(C/[N+]([O-])=N/O)C(=O)O (centres undefined), the T/C (dose: 7.0 mg/kg/injection, schedule: Q01DX005 (ip), vehicle: saline) was 119 % of control, the T/C (dose: 14.0 mg/kg/injection, schedule: Q01DX005 (ip), vehicle: saline) was 119 % of control and the T/C (dose: 56.0 mg/kg/injection, schedule: Q01DX005 (ip), vehicle: saline) was 95 % of control.

With CCC(=O)O[C@H]1CC[C@H]2[C@@H]3[C@@H](C)CC4=CC(=O)CC[C@]4(C)[C@H]3CC[C@]12C the T/C (dose: 32.0 mg/kg/injection, schedule: Q01DX005 (ip), vehicle: Klucel (hydroxypropylcellulose) (HPC)) was 104 % of control, the T/C (dose: 64.0 mg/kg/injection, schedule: Q01DX005 (ip), vehicle: Klucel (hydroxypropylcellulose) (HPC)) was 105 % of control and 106 % of control and the T/C (dose: 128.0 mg/kg/injection, schedule: Q01DX001 (ip), vehicle: Klucel (hydroxypropylcellulose) (HPC)) was 106 % of control. The T/C (dose: 128.0 mg/kg/injection, schedule: Q01DX005 (ip), vehicle: Klucel (hydroxypropylcellulose) (HPC)) was 105 % of control and 111 % of control, the T/C (dose: 128.0 mg/kg/injection, schedule: Q01DX005 (oral), vehicle: Klucel (hydroxypropylcellulose) (HPC)) was 109 % of control and the T/C (dose: 256.0 mg/kg/injection, schedule: Q01DX001 (ip), vehicle: Klucel (hydroxypropylcellulose) (HPC)) was 93 % of control. For the same compound, the T/C (dose: 256.0 mg/kg/injection, schedule: Q01DX005 (ip), vehicle: Klucel (hydroxypropylcellulose) (HPC)) was 103 % of control and 113 % of control, the T/C (dose: 256.0 mg/kg/injection, schedule: Q01DX005 (oral), vehicle: Klucel (hydroxypropylcellulose) (HPC)) was 97 % of control and the T/C (dose: 512.0 mg/kg/injection, schedule: Q01DX001 (ip), vehicle: Klucel (hydroxypropylcellulose) (HPC)) was 103 % of control. For the same compound, the T/C (dose: 512.0 mg/kg/injection, schedule: Q01DX005 (ip), vehicle: Klucel (hydroxypropylcellulose) (HPC)) was 105 % of control and 107 % of control, the T/C (dose: 512.0 mg/kg/injection, schedule: Q01DX005 (oral), vehicle: Klucel (hydroxypropylcellulose) (HPC)) was 90 % of control and the T/C (dose: 1024.0 mg/kg/injection, schedule: Q01DX001 (ip), vehicle: Klucel (hydroxypropylcellulose) (HPC)) was 96 % of control. The T/C (dose: 1024.0 mg/kg/injection, schedule: Q01DX005 (oral), vehicle: Klucel (hydroxypropylcellulose) (HPC)) was 113 % of control.

With O=c1n(CC2CO2)c(=O)n(CC2CO2)c(=O)n1CC1CO1 (centres undefined) the T/C (dose: 20.0 mg/kg/injection, schedule: Q01DX009 (ip), vehicle: saline) was 114 % of control, the T/C (dose: 25.0 mg/kg/injection, schedule: Q01DX009 (ip), vehicle: saline) was 114 % of control and the T/C (dose: 40.0 mg/kg/injection, schedule: Q01DX009 (ip), vehicle: saline) was 124 % of control. The T/C (dose: 50.0 mg/kg/injection, schedule: Q01DX009 (ip), vehicle: saline) was 111 % of control and the T/C (dose: 100.0 mg/kg/injection, schedule: Q01DX009 (ip), vehicle: saline) was 95 % of control.

With NC(=S)N/N=C/c1ccc(O)cn1 the T/C (dose: 12.0 mg/kg/injection, schedule: Q01DX005 (ip), vehicle: saline) was 108 % of control, the T/C (dose: 24.0 mg/kg/injection, schedule: Q01DX005 (ip), vehicle: saline) was 94 % of control and the T/C (dose: 48.0 mg/kg/injection, schedule: Q01DX005 (ip), vehicle: saline) was 101 % of control. For the same compound, the T/C (dose: 96.0 mg/kg/injection, schedule: Q01DX005 (ip), vehicle: saline) was 104 % of control.
